Data from article PMC12801355, “Peptide Amphiphiles Hitchhike on Endogenous Biomolecules for Enhanced Cancer Imaging and Therapy” (Advanced Materials (Deerfield Beach, Fla.), 2025).
Blank lines part the entries; values can stand above or below the molecule they belong to. Where a SMILES comes first, the peptide text is derived from it. Where no end group is shown, it is not given here. [ ]: non-standard residue; d: D form. The star is where a group is joined. Dolaproine = CO[C@@H]([C@@H]1CCCN1)[C@@H](C)C(=O)O; Dil = CC[C@H](C)[C@H](NC)[C@@H](CC(=O)O)OC; Palmitoyl = CCCCCCCCCCCCCCCC(=O)*; X1 = C[C@@H](N*)[C@@H](O)c1ccccc1; NMeV = CN[C@H](C(=O)O)C(C)C

Key:
[1] = test system: 4T1 mouse breast cancer cells; assay: Cellular uptake of Cy5 labeled PAs; assay type: cell-based
Protocol: To compare the uptake of SA‐E and SA‐K, 1 × 10^5 4T1 cells were grown to near confluency (1–2 days) in 96 well plates with black walls and flat glass bottom. 100% Cy5 conjugated PAs (20 or 10 µM) or 10% Cy5 conjugated PA micelles (10 µM Cy5‐PAs mixed with 90 µM maleimide blocked labeled PAs) were preincubated in 10% FBS containing RPMI for 30 min at 37 °C, wells were aspirated, and 100 µL of media containing PAs were added. The plate was incubated for 30 min for the experiments with 100% Cy5 conjugated PAs. Media were aspirated, wells were washed 3x with 150 µL sterile PBS, and then 100 µL RPMI containing 10% FBS was added to each well. The plate was incubated for 1 h at 37 °C. For 10% and 100% Cy5 micelle uptake comparison, plate was incubated for 2 h at 37 °C with PAs. Then, media containing PAs were aspirated and washed with PBS, as above. Cell nuclei were stained with Hoechst (1:5000 dilution in PBS) for 5 min and then removed. 100 µL of phenol red free RPMI containing 10% FBS was added to each well. […] The microscope incubator was preheated for 30 min to reach 35 °C prior to imaging.
To study the uptake of SA‐E or SA‐K micelles (10% or 100% Cy5 micelles) or No‐SA over time, 4T1 cells were grown to near confluency in a 96 well plate as described above. Cy5 conjugated 100% Cy5 conjugated PAs (20 µM), 10% Cy5 conjugated PAs (10 µM Cy5), or No‐SA (20 µM) or were preincubated in 10% FBS containing RPMI for 30 min at 37 °C. Cell nuclei were stained with Hoechst stain as above. Cell membranes were stained (CellBrite 488, 1:1000 in 10% FBS containing RPMI) for 30 min at 37 °C. Wells were aspirated, and 100 µL of PAs were added to the wells for ≈1 min. Wells were washed with sterile PBS (3x, 150 µL), and Confocal images were taken at different time points (up to 2 h) after PA or No‐SA addition as described above using a 60x objective.

4T1 tumor [2] = assay: Tumor accumulation, live IVIS imaging; assay type: in vivo, mouse; settings: 50 nmol IV
Protocol: For tumor accumulation studies in subcutaneous (HCT‐116, A375, TRAMP‐C2, MC38, LLC1, RG2, PDX cell lines, wild type or SR‐B1 ‐/‐ TRAMP‐C2, and wild type or LDL‐R ‐/‐ HeLa), intradermal (A375), or fat pad (4T1 and MCF‐7) tumors, cells were implanted as described above. When the tumors reached a size around ≈0.3–1 cm, mice were injected intravenously with 100 µL of ICG conjugated PAs (in PBS, 0.5 mM) or free ICG (in PBS, 0.5 mM). After probe injections, mice were imaged using the IVIS Spectrum (PerkinElmer) with excitation and emission wavelengths of 745 and 820 nm, respectively, at the specified time points. Living Image (PerkinElmer) software was used for all analyses. For MMTV mice experiments, mice were injected intravenously weekly with SA‐E (100 µL PBS, 0.5 mM) between 71 and 85 days of age and imaged 2 days later in the IVIS. […] SA‐E was injected intravenously (100 µL PBS, 0.5 mM), 2 days later the intestinal tissue was harvested, washed, and analyzed in the IVIS for ICG.

[3] = Blood circulation in mice; assay type: in vivo, mouse
Protocol: For blood circulation experiments, Balb/c mice were injected with 100 µL of ICG conjugated PAs or No‐SA, or free ICG (0.5 mM). Then, blood was drawn via the saphenous vein or retro‐orbitally at different time points (immediately after injection to 1 day). […] Blood from wild type mice was collected to prepare calibration curves for each probe. To each 18 µL aliquot of blood, 2 µL of probe stock solution (0.5 mM) was added and incubated at 37 °C for 1 h. The spiked samples were then serially diluted in blood between 50 and 0.1 µM. For fluorescence measurement, 2 µL of each diluted sample was further diluted into 98 µL of PBS, and ICG fluorescence was measured using a TECAN plate reader.

[4] = Fluorescence polarization of PA nanostructures; assay type: physicochemical; settings: 10 mol% ICG conjugated PA (20 µM) with unconjugated PA, 200 µM total, PBS; mean ± SEM, 3 wells
Protocol: ICG (10 mol%) containing PA micelles were prepared by mixing ICG‐conjugated PAs with unconjugated or MMAE‐conjugated PAs to achieve a final concentration of 20 µM ICG‐conjugated PAs and 200 µM of total PAs. Aliquots of 100 µL were added to a 96‐well plate (3 wells for each PA). Fluorescence polarization measurements were performed using a microplate reader (TECAN Spark 20 M). The corrected parallel intensity (I par) and perpendicular intensity (Iper) were used to calculate the fluorescence anisotropy (r) using the following equation: r = […].

[5] = PA fluorescence in liver homogenates; assay type: in vitro ADME; settings: ICG conjugated, 0.1 to 10 µM spiked into mouse liver homogenate, IVIS
Protocol: Liver samples (6.2 g total weight) collected from healthy BALB/cJ mice were placed in a gentleMACS M Tube containing 2 mL of PBS. The M Tube was fitted with a 600 µm mesh strainer, and homogenization was performed using a gentleMACS Dissociator by running a one‐minute program at 1260 rotations per round (rpr) for five cycles. ICG conjugated SA‐E and SA‐K were then spiked into the liver homogenates in a 96‐well plate at final concentrations of 0, 0.1, 0.5, 2.0, 5.0, and 10 µM. Fluorescence signals from the homogenates were measured using an IVIS (PerkinElmer).

[6] = TEM imaging of PA nanostructures; assay type: physicochemical; settings: ICG conjugated PA, 200 µM in ultrapure water, negative stain
Protocol: For TEM imaging, PAs conjugated with ICG, Cy5 or MMAE were dissolved in ultrapure water at a concentration of 200 µM. Carbonfilm 200 copper mesh TEM grids were glow‐discharged first. Then, PA solutions (15 µL) were placed on the grids, incubated for 10 min before blotting, and air‐dried. 15 µL of ultrapure water was applied to wash the grid for 3 min. After incubation, the water was removed by blotting from the edge of the grid. For negative staining of the samples, a 0.4% uranyl acetate solution was prepared in ultrapure water and filtered using a 0.1 µm syringe filter. 15 µL of filtered uranyl acetate solution was applied to the grid and incubated for 5 min. Finally, TEM grids were blotted to remove excess stain and dried at room temperature. TEM imaging was performed using a Tecnai or Talos microscope (FEI).

[7] = test system: LPs (HDL, LDL, VLDL) and albumin in pooled human plasma; set-up: AUC of all FPLC peaks, lower than SA‐E: unit not given beside the values
4T1 tumor [8] = assay: Antitumor effect, 4T1 orthotopic mouse model
Protocol: All experiments were approved by the Oregon Health and Science University (OHSU) Institutional Animal Care and Use Committee (IACUC) (TR01_IP00000674) and conformed to the guidelines set by the United States Animal Welfare Act and the National Institutes of Health. Mice were aged between 3 and 8 months and 20–30 g in weight and were housed in specific pathogen free cages. Human, mouse, or rat cells were injected into nude (The Jackson Laboratory, 002019), NSG mice (The Jackson Laboratory, 005557), Balb/c mice (The Jackson Laboratory, 000651), or C57Bl/6J mice (The Jackson Laboratory, 000664), as specified below. Cells were injected in 100 µL sterile DMEM at a concentration of 0.5–1×10^7 cells mL^−1, unless otherwise specified. For tumor accumulation and biodistribution studies, A375 cells were injected intradermally into the left ears of NSG mice (The Jackson Laboratory, 005557). MCF7 cells were injected into the mammary fat pad of NSG mice. HCT‐116, RG2, and HeLa (wild type or LDL‐R knockout) cells were subcutaneously injected into the left or both flanks of NSG mice. 4T1 cells were injected into the mammary fat pad of Balb/c mice. LLC1, MC38, and TRAMP‐C2 (wild type or SR‐B1 knockout) were injected into C57Bl/6J mice. Patient‐derived xenografts were generated by injecting the patient‐derived cancer cells subcutaneously into the left flank of NSG mice. ApoA1 and LDL‐R knockout mice were purchased from the Jackson Laboratory (002055 and 002207, respectively). MC38 cells were subcutaneously injected into both flanks of these mice. Apc^min and MMTV‐PyMT mice were purchased from the Jackson Laboratory (002020 and 002374). For antitumor activity studies, 4T1 cells were injected into the mammary fat pad of Balb/c mice. HCT‐116 and RG2 cells were subcutaneously injected into the left flanks of nude mice. For antitumor activity studies, HCT‐116 cells were injected in a 1:1 mixture of DMEM and Matrigel (Life Science 354263).
Mice were injected with 4T1, RG2, or HCT‐116 cells as described above. Mice were then treated intravenously with the free MMAE (0.1 or 0.3 mg kg^−1), SA‐E‐MMAE (0.3, 0.6, 0.8, or 1 mg kg^−1) or PBS (10 mM, pH 7.4). 5 doses were given every 2–3 days over 11 days. […] Tumor size and mouse weight were monitored 2–3 times per week until a humane endpoint (tumor size ≈2 cm or >20% body weight loss) or the study endpoint (18, 25, or 120 days for 4T1, RG2, and HCT‐116 studies, respectively). Tumor size was measured in two directions with a caliper rounded to the nearest tenth of a mm. Volume was calculated as a basic sphere of 4/3πr^3.

TBR compared to SA‐E (4T1 tumor [2]; 4T1 tumor‐bearing mice): significantly lower TBR
clearance from the tumor (4T1 tumor [2]; ICG conjugated, 4T1): mostly cleared in 2 days
Molecule: GGGHAANGEECE [No‐SA]
membrane binding and internalization ([1]; Cy5‐conjugated, 20 µM, ≈1 min exposure, imaging up to 2 h): no significant membrane binding or internalization

TBR (4T1 tumor [2]; all time points): around 1
injected dose still in circulation ([3]; wild type (Balb/c) mice, ICG conjugated or free ICG 50 nmol IV, 6 h post injection, blood fluorescence with calibration curve): not detectable
blood concentration, share of injected dose ([3]; wild type mice, 50 nmol IV, in 30 min): below 1%
Molecule: CC1(C)C(/C=C/C=C/C=C/C=C2\N(CCCCS(=O)(=O)O)c3ccc4ccccc4c3C2(C)C)=[N+](CCCCS(=O)(=O)[O-])c2ccc3ccccc3c21 [free ICG, indocyanine green]

maximum TBR, lower than that of SA‐E (4T1 tumor [2]; 4T1 tumor‐bearing mice): approximately two‐fold
maximum tumor signal, lower than maximum of SA‐E (4T1 tumor [2]; 4T1 tumor‐bearing mice): ≈ 6 fold
total tumor accumulation (AUC of tumor signal), lower than SA‐E (4T1 tumor [2]; 4T1 tumor‐bearing mice): ≈ 2.7 fold
time of maximum tumor fluorescence (4T1 tumor [2]; 4T1 tumor‐bearing mice, ICG conjugated): 4 days
fluorescence anisotropy of ICG in micelles [4]: 0.299 ± 0.008
fluorescence in liver homogenates, SA‐E versus SA‐K (disassembly) [5]: almost identical fluorescence intensity
diameter of rod‐shaped micelles (TEM) [6]: ≈ 10 nm
length of rod‐shaped micelles (TEM) [6]: several hundred
AUC of all FPLC peaks, lower than SA‐E [7]: ≈ 4.5
Molecule: CCCCCCCCCCCCCCCC(=O)NCC(=O)NCC(=O)NCC(=O)N[C@@H](Cc1c[nH]cn1)C(=O)N[C@@H](C)C(=O)N[C@@H](C)C(=O)N[C@@H](CC(N)=O)C(=O)NCC(=O)N[C@@H](CCCCN)C(=O)N[C@@H](CCCCN)C(=O)N[C@@H](CS)C(=O)N[C@@H](CCCCN)C(=O)O [SA‐K] (Palmitoyl-GGGHAANGKKCK-OH)
uptake relative to SA‐E ([1]; Cy5 conjugated PAs, 10% FBS RPMI, 30 min incubation then 1 h, confocal): approximately three‐fold

Molecule: CC[C@H](C)[C@@H]([C@@H](CC(=O)N1CCC[C@H]1[C@H](OC)[C@@H](C)C(=O)N[C@H](C)[C@@H](O)c1ccccc1)OC)N(C)C(=O)[C@@H](NC(=O)[C@@H](NC)C(C)C)C(C)C [free MMAE, Monomethyl auristatin E] (H-[NMeV]V[Dil][Dolaproine]-X1)
tolerability (4T1 tumor [8]; 0.1 mg kg^−1 IV, 5 doses, n = 3): tolerated
tolerability (4T1 tumor [8]; 0.3 mg kg^−1 IV, stopped after the third injection, n = 5): high toxicity with rapid weight loss
effect on tumor growth (4T1 tumor [8]; 0.1 or 0.3 mg kg^−1 IV): slight reduction in tumor growth
